Data reported in PMC6792352, “Limited Chemical Structural Diversity Found to Modulate Thyroid Hormone Receptor in the Tox21 Chemical Library” (Environmental Health Perspectives, 2019).
Where a name gives a salt, the structure may show the parent alone. Non-standard residues stand in square brackets, D forms with d. Residues, ends and D or L forms follow the SMILES beside them. *: point of attachment. Sta = CC(C)C[C@H](N)[C@@H](O)CC(=O)O; Isovaleryl = CC(C)CC(=O)*

Test: in vitro
Details: rat, gh3-tre-luc cells

SMILES	CC50 at 24 h (AC50 (uM) modified / 1000) [µM]	further results
BrC(Br)C(Br)(Br)Br [Pentabromoethane]	–	CC50 at 24 h (AC50 (uM) modified / 1000, Tox21_110001=Tox21_200571, viability, 1 nM T3 present, 24 h): 24.2 µM
Oc1c(Br)c(Br)c(Br)c(Br)c1Br [Pentabromophenol]	33.5	–
Nc1c(Cl)c(Cl)c(Cl)c(Cl)c1Cl [Pentachloroaniline]	–	CC50 at 24 h (AC50 (uM) modified / 1000, Tox21_110001=Tox21_400021, viability, 1 nM T3 present, 24 h): > 90 µM
COc1c(Cl)c(Cl)c(Cl)c(Cl)c1Cl [Pentachloroanisole]	> 90	–
Clc1cc(Cl)c(Cl)c(Cl)c1Cl [Pentachlorobenzene]	> 90	–
ClC(Cl)C(Cl)(Cl)Cl [Pentachloroethane]	–	CC50 at 24 h (AC50 (uM) modified / 1000, Tox21_110001=Tox21_201141, viability, 1 nM T3 present, 24 h): > 90 µM
O=[N+]([O-])c1c(Cl)c(Cl)c(Cl)c(Cl)c1Cl [Pentachloronitrobenzene]	> 90	–
Clc1nc(Cl)c(Cl)c(Cl)c1Cl [Pentachloropyridine]	> 90	–
CSc1c(Cl)c(Cl)c(Cl)c(Cl)c1Cl [Pentachlorothioanisole]	81.6	–
O=C1CCCCCCCCCCCCCCO1 [Pentadecan-15-olide]	> 90	–
CCCCCCCCCCCCCCC [Pentadecane]	> 90	–
CCCCCCCCCCCCCCC(=O)O [Pentadecanoic acid]	> 90	–
C=CCOCC(CO)(CO)CO [Pentaerythritol allyl ether]	> 60	–
OCC(CO)(CBr)CBr [Pentaerythritol dibromide]	> 90	–
C=CC(=O)OCC(COC(=O)C=C)(COC(=O)C=C)COC(=O)C=C [Pentaerythritol tetraacrylate]	3	–
OCC(CO)(CO)CO [Pentaerythritol]	> 100	–
CSCC[C@H](NC(=O)[C@H](Cc1c[nH]c2ccccc12)NC(=O)CCNC(=O)OC(C)(C)C)C(=O)N[C@@H](CC(=O)O)C(=O)N[C@@H](Cc1ccccc1)C(N)=O [Pentagastrin]	> 50	–
CCCCC[C@@H](O)[C@H]1C(=O)O[C@H](C)[C@@H](O)/C=C/C=C/C=C/C=C/C=C(\C)[C@@H](O)[C@H](O)[C@H](O)C[C@H](O)C[C@H](O)C[C@H](O)C[C@H](O)C[C@@H]1O [Pentamycin]	> 50	–
CCCCC=O [Pentanal]	> 90	–
BrCCCCCBr [Pentane,1,5-dibromo-]	> 100	–
CCC(C)(C)CC [Pentane,3,3-dimethyl-]	> 100	–
O=C(OCCCCCOC(=O)c1ccccc1)c1ccccc1 [Pentane-1,5-diyl dibenzoate]	> 90	–
CCCCC [Pentane]	> 90	–
CCCCC(=O)O [Pentanoic acid]	> 90	–
O=C(O)CN(CCN(CC(=O)O)CC(=O)O)CCN(CC(=O)O)CC(=O)O [Pentetic acid]	25	–

SMILES	CC50 at 24 h (AC50 (uM) modified / 1000) [µM]	further results
OCC1(CO)COC(C(Cl)(Cl)Cl)OC1 [Penthrichloral]	> 50	–
CN[C@@H]1[C@@H](O)[C@@H](O[C@@H]2[C@H](O)[C@H](O[C@H]3OC(CN)=CC[C@H]3N)[C@@H](N)C[C@H]2N)OC[C@]1(C)O [Pentisomicin]	> 50	–
CCCC(C)C1(CC)C(=O)NC(=O)NC1=O (stereo not drawn) [Pentobarbital]	> 50	–
C[N+]1(CCCCC[N+]2(C)CCCC2)CCCC1 [Pentolinium ditartrate]	> 50	–
OC[C@H]1O[C@@H](n2cnc3c2NC=NC[C@H]3O)C[C@@H]1O [Pentostatin]	> 50	–
CC(=O)CCCCn1c(=O)c2c(ncn2C)n(C)c1=O [Pentoxifylline]	> 20	–
CCCCCOC(C)=O [Pentyl acetate]	> 90	–
CCCCCOC(=O)CCC [Pentyl butyrate]	> 90	–
CCCCCOC(=O)CCCCC [Pentyl hexanoate]	> 90	–
CCCCCON=O [Pentyl nitrite]	–	CC50 at 24 h (AC50 (uM) modified / 1000, Tox21_110001=Tox21_202898, viability, 1 nM T3 present, 24 h): > 90 µM
CCCCCSCCCCC [Pentyl sulfide]	> 90	–
CCCCCOC(=O)CCCC [Pentyl valerate]	> 90	–
CCCCCC(C=O)=Cc1ccccc1 [Pentylcinnamaldehyde]	> 90	–
C1CCc2nnnn2CC1 [Pentylenetetrazol]	> 50	–
CCCCCOC(=O)c1ccc(O)cc1 [Pentylparaben]	67.4	–
Cc1c(N)nc([C@H](CC(N)=O)NC[C@H](N)C(N)=O)nc1C(=O)N[C@H](C(=O)N[C@H](C)[C@@H](O)[C@H](C)C(=O)N[C@H](C(=O)NCCc1nc(-c2nc(C(=O)NCCCN[C@@H](C)c3ccccc3)cs2)cs1)[C@@H](C)O)[C@@H](O[C@@H]1O[C@@H](CO)[C@@H](O)[C@H](O)[C@@H]1O[C@H]1O[C@H](CO)[C@@H](O)[C@H](OC(N)=O)[C@@H]1O)c1c[nH]cn1 [Peplomycin sulfate]	2.77	–
CC(C)CC(=O)N[C@H](C(=O)N[C@H](C(=O)N[C@@H](CC(C)C)[C@@H](O)CC(=O)N[C@@H](C)C(=O)N[C@@H](CC(C)C)[C@@H](O)CC(=O)O)C(C)C)C(C)C [Pepstatin] (Isovaleryl-VV[Sta]A[Sta]-OH)	> 50	–
CC(=O)OO [Peracetic acid]	–	CC50 at 24 h (AC50 (uM) modified / 1000, Tox21_110001=Tox21_112402, viability, 1 nM T3 present, 24 h): > 50 µM
CN1CCN(CCCN2c3ccccc3Sc3ccccc32)CC1 [Perazine]	16.5	–
FC(F)(F)C(F)(F)C(F)(F)C(F)(F)C(F)(F)F [Perflenapent]	> 50	–
FC(F)(F)C(F)(F)C(F)(F)C(F)(F)C(F)(F)C(F)(F)F [Perflexane]	> 50	–
FC1(F)C(F)(F)C(F)(F)C2(F)C(F)(F)C(F)(F)C(F)(F)C(F)(F)C2(F)C1(F)F (stereo not drawn) [Perflunafene]	> 50	–
O=C(O)C(F)(F)C(F)(F)C(F)(F)C(F)(F)C(F)(F)C(F)(F)C(F)(F)C(F)(F)C(F)(F)F [Perfluorodecanoic acid]	–	CC50 at 24 h (AC50 (uM) modified / 1000, Tox21_110001=Tox21_300608, viability, 1 nM T3 present, 24 h): > 90 µM
O=C(O)C(F)(F)C(F)(F)C(F)(F)C(F)(F)C(F)(F)C(F)(F)F [Perfluoroheptanoic acid]	–	CC50 at 24 h (AC50 (uM) modified / 1000, Tox21_110001=Tox21_300616, viability, 1 nM T3 present, 24 h): > 90 µM
O=C(O)C(F)(F)C(F)(F)C(F)(F)C(F)(F)C(F)(F)F [Perfluorohexanoic acid]	–	CC50 at 24 h (AC50 (uM) modified / 1000, Tox21_110001=Tox21_300394, viability, 1 nM T3 present, 24 h): > 90 µM

SMILES	CC50 at 24 h (AC50 (uM) modified / 1000) [µM]	further results
O=C(O)C(F)(F)C(F)(F)C(F)(F)C(F)(F)C(F)(F)C(F)(F)C(F)(F)C(F)(F)F [Perfluorononanoic acid]	> 90	–
NS(=O)(=O)C(F)(F)C(F)(F)C(F)(F)C(F)(F)C(F)(F)C(F)(F)C(F)(F)C(F)(F)F [Perfluorooctanesulfonamide]	52.8	–
O=S(=O)(O)C(F)(F)C(F)(F)C(F)(F)C(F)(F)C(F)(F)C(F)(F)C(F)(F)C(F)(F)F [Perfluorooctanesulfonic acid]	–	CC50 at 24 h (AC50 (uM) modified / 1000, Tox21_110001=Tox21_400083, viability, 1 nM T3 present, 24 h): > 90 µM
O=C(O)C(F)(F)C(F)(F)C(F)(F)C(F)(F)C(F)(F)C(F)(F)C(F)(F)C(F)(F)C(F)(F)C(F)(F)F [Perfluoroundecanoic acid]	–	CC50 at 24 h (AC50 (uM) modified / 1000, Tox21_110001=Tox21_300606, viability, 1 nM T3 present, 24 h): > 90 µM
CCCN1C[C@H](CSC)C[C@@H]2c3cccc4[nH]cc(c34)C[C@H]21 [Pergolide methanesulfonate]	> 50	–
C1CCC(C(CC2CCCCN2)C2CCCCC2)CC1 (stereo not drawn) [Perhexiline maleate]	4.32	–
N#Cc1ccc2c(c1)N(CCCN1CCC(O)CC1)c1ccccc1S2 [Periciazine]	14.3	–
CCCCCCCCCCCCCCCCCCOP(=O)([O-])OC1CC[N+](C)(C)CC1 [Perifosine]	> 20	–
CCC[C@H](N[C@@H](C)C(=O)N1[C@H](C(=O)O)C[C@@H]2CCCC[C@@H]21)C(=O)OCC [Perindopril]	> 50	–
OC(CN1CCCCC1)c1cc(-c2ccccc2)on1 (stereo not drawn) [Perisoxal citrate]	> 50	–
CN1CCN(C2=Nc3ccccc3Cc3ccccc32)CC1 [Perlapine]	25.9	–
CC1(C)C(C=C(Cl)Cl)C1C(=O)OCc1cccc(Oc2ccccc2)c1 (stereo not drawn) [Permethrin]	> 90	–
O=C1[C@H]2CCCC[C@H]2C(=O)N1CCCCN1CCN(c2nsc3ccccc23)CC1 [Perospirone hydrochloride]	21	–
OCCN1CCN(CCCN2c3ccccc3Sc3ccc(Cl)cc32)CC1 [Perphenazine]	4.46	–
CN1CCN(C(=O)C2CCCCC2)CC1 [Pexantel]	> 50	–
O=C1C(=O)c2ncccc2-c2cccnc21 [Phanquinone]	1.78	–
CCn1nc(C)c2c1C(=O)NCC(c1ccc(O)cc1)=N2 [PharmaGSID_47263]	> 90	–
CCc1cc(SCc2sc(-c3ccc(C(F)(F)F)cc3)nc2CN2CCN(c3ccc(OC)cc3)CC2)ccc1OCC(=O)O [PharmaGSID_47315]	22.4	–
CC(C)(O)c1cnn2c(-c3ccc(F)c(-c4c(F)cccc4C#N)c3)cnc2n1 [PharmaGSID_47330]	> 90	–
Cc1ncc([C@@H](CCCCCCc2ccc3c(n2)NCCC3)CC(=O)O)cn1 [PharmaGSID_47333]	> 90	–
CCOc1cccc(-n2cc(C(=O)N3CCN(c4cc(C(=O)O)c5ccccc5c4)CC3)nc2-c2ccc(C)cc2)c1 [PharmaGSID_47337]	77.9	–
COc1cc(C=O)cc2c1[C@H](COC(N)=O)[C@]1(OC(C)=O)ON2C[C@H]2[C@@H]1N2C(C)=O [PharmaGSID_48166]	1.23	–
O=C1c2ccccc2C(=O)N1CCc1noc(-c2ccc(CN3CCCCCC3)s2)n1 [PharmaGSID_48172]	> 80	–
Cc1[nH]nc2c1N=C(c1ccccc1Cl)c1cc([N+](=O)[O-])ccc1N2 [PharmaGSID_48505]	39.4	–
Cn1c(=O)cc(Oc2ccc(F)cc2F)c2cnc(NCC(C)(C)O)nc21 [PharmaGSID_48507]	> 90	–
